Experimental data published in publication PMC5587642, “A Novel Benzocoumarin-Stilbene Hybrid as a DNA ligase I inhibitor with in vitro and in vivo anti-tumor activity in breast cancer models” (Scientific Reports, 2017).
Entries after “also recorded” stand apart in the source; their conditions may differ.

Columns and labels:
[1] = Stability in simulated gastric and intestinal fluids; type: in vitro ADME; settings: 2 µg/mL, up to 180 min
Method: Simulated gastric fluid (SGF) and simulated intestinal fluid (SIF) were prepared according to USP specifications. The compound 19 was incubated in SGF (0.2 g NaCl, 0.32 g pepsin, 0.7 mL HCl and triple distilled water up to 100 mL, pH 1.2) or SIF (0.680 g […], 0.616 g NaOH, 1 g pancreatin and triple distilled water up to 100 mL, pH 6.8). From the stock solution of compound 19 (1 mg/mL), equivalent concentration of 2 μg/mL of compound 19 were added to 1 mL of preincubated reaction mixture of SGF and SIF, at 37 °C in a shaking water bath in triplicate. 100 μL aliquots of sample was collected at each time point at 0, 5, 15, 30 and 60 min for SGF and 0, 5, 15, 30, 60 90, 120 and 180 min for SIF according to the human gastrointestinal transit time, followed by quenching with acetonitrile, then vortexed and centrifuged at 12000 rpm for 5 min. The supernatant was collected and analyzed by HPLC. The graph was plotted between % drug remaining and incubation time for SGF and SIF.

[2] = Metabolic stability in rat liver microsomes; type: in vitro ADME
Method: Major drug clearance in the body occurs due to its metabolism in the liver. Metabolic stability in rat liver microsomes (RLM) was conducted in triplicate. Compound 19 (5 µM) was incubated in reaction milieu which contains RLM (0.5 mg/ml), MgCl2 (10 mM), NADPH (10 mM) in a 1.5 ml phosphate buffer solution (pH 7.4). Reaction was started by the addition of NADPH and kept in a shaking water bath at 37 °C. Organic content in reaction mixture was kept less than 1%. Time points at which samples were withdrawn were 0, 5, 15, 30, 45, 60 min. Testosterone was used as control to know the RLM enzyme activity. Control reaction without NADPH was performed to explore any chemical instability or non-cofactor dependent enzymatic degradation. At each time point 150 µL aliquots were withdrawn and added in 150 µL ACN, […] at 10,000 g for 5 minutes, 100 µL samples was pipetted out & analyzed in HPLC-PDA.

hLigI = molecular target: T1, hLigI (Homo sapiens, UniProt P18858); experiment: Circular dichroism study; type: binding; settings: 5 and 10 µM
T1 construct: made in house
T1 sequence (P18858 whole entry): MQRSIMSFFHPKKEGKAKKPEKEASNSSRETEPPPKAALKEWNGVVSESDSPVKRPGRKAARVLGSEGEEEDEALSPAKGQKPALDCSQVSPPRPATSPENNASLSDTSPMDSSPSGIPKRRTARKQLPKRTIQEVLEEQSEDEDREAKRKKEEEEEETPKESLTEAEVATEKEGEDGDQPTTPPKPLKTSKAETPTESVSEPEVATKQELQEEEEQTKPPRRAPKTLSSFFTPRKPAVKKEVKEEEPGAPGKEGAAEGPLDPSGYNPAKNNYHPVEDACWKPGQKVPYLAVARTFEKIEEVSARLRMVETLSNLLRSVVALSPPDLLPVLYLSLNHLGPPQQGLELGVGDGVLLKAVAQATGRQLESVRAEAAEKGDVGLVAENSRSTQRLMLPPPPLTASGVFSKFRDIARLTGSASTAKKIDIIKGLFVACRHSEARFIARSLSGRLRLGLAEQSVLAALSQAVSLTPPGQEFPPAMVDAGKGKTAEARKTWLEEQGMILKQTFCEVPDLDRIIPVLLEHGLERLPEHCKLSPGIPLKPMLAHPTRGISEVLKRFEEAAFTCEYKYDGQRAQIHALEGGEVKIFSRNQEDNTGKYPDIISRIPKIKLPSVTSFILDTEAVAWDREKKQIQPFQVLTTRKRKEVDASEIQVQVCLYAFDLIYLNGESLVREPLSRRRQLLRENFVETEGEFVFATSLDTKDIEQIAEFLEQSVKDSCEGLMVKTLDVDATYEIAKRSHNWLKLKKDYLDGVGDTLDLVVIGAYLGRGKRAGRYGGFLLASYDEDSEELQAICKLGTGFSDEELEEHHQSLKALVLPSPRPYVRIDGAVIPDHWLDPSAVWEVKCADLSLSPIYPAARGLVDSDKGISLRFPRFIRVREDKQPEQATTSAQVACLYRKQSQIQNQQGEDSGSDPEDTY
Method: We followed previously described protocol for CD studies[40] with small modifications. Briefly, emission spectra of hLigI (100 pmol) was recorded at a wavelength of 190-250 nm in the presence (5 and 10 µM) or absence of compound 19 by spectropolarimeter. The raw values in mdeg were obtained and used for mean residual ellipticity [θ] calculation. The graph was generated by the plotting the value of mean residue ellipticity in deg cm^2 dmol^−1 with respect to wavelength.

PLC/PRF/5 (Liver) = experiment: MTT cell viability assay; type: cell-based
Method: (§1) Cell viability assay was performed as described previously. Briefly, cells were seeded in 96 well plates and treated with different concentrations of compound 19 for 48 h. After drug treatment, MTT reagent was added in each well of the plate and cell viability was quantified by measuring the absorbance at 590 nm.

A549 (Lung) = experiment: MTT cell viability assay; type: cell-based
Method: as §1

[3] = test system: HEK-293 (Non-cancerous cell); experiment: MTT cell viability assay; type: cell-based
Method: as §1

A172 (Brain) = experiment: MTT cell viability assay; type: cell-based
Method: as §1

[4] = test system: 4T1 (Mouse Breast Cancer); experiment: MTT cell viability assay; type: cell-based
Method: as §1

SK-OV-3 (Ovary) = experiment: MTT cell viability assay; type: cell-based
Method: as §1

PANC-1 (Pancreas) = experiment: MTT cell viability assay; type: cell-based
Method: as §1

DLD1 (Colon) = experiment: MTT cell viability assay; type: cell-based
Method: as §1

MDA-MB-231 cells = experiment: Cell cycle distribution analysis (PI, FACS); type: cell-based, human; settings: 12 µM
Method: For the study of cell cycle distribution, cells were synchronized by serum starvation for 48 h and then grown in serum containing media in the presence or absence of 12 µM compound 19, after 0, 24 and 48 h, cells were harvested, washed twice with cold PBS and fixed with 70% ethanol. The fixed cells were washed with chilled PBS and then stained with 50 μg/mL of Propidium iodide. Cell cycle distribution was analyzed by using FACS-Calibur (BD Biosciences, San Diago, CA).

[5] = test system: 4T1 mouse breast cancer induced syngeneic breast tumor; experiment: Syngeneic 4T1 orthotopic breast cancer model; type: in vivo, BALB/c mice; settings: 50 and 100 mg/kg, oral gavage daily for 32 days
Method: Animal studies were conducted under the protocol approved by the CSIR-CDRI Institutional Animal Ethics Committee (IAEC approval no. IAEC/2015/03). The in-vivo efficacy studies were performed using BALB/c mice with 4T1 mouse breast cancer induced syngeneic breast tumor model. Mouse tumor model was generated as described by Pulaski et al.[38]. Three different groups of 6 mice each were created for the experiment. Mouse breast cancer cells (4T1) were grown in tissue culture flask upto 70% confluence. Cells were then trypsinized, washed with serum containing medium to quench trypsin activity and then washed and resuspended in PBS. Then cells were injected orthotopically (1 × 10^6 cells in 100 μl PBS) into the mammary fat pad on the right flank of each female BALB/c mouse. Within 2 weeks, palpable tumors were formed and tumor bearing mice were divided randomly into one control and two treatment groups of six mice each. The treatment schedule began on day 16 of the injection and continued for another thirty two days. Compounds were administered by oral gavage once daily at 50 and 100 mg/kg. Tumor volumes were measured every fourth day. The group of vehicle treated animals served as control. The tumor volume, body weight and any behavioral changes in mice were monitored and recorded for the entire duration of the experiment (32 days). Tumor volumes were calculated using the formula (a × b^2)/2, where a, b are two longest perpendicular diameters.

[6] = 0 h (treated and untreated cells)

COc1cc(/C=C/c2cc(=O)oc3c2ccc2ccccc23)cc(OC)c1 [Compound 19, (E)-4-(3,5-dimethoxystyryl)-2H-benzo[h]chromen-2-one]
Stability in SGF (simulated gastric fluid) ([1]; pH 1.2, 37 °C): 83.19 ± 3.22%
Stability in SIF (simulated intestinal fluid) ([1]; pH 6.8, 37 °C): 96.45 ± 0.79%
Microsomal metabolic stability ([2]; 5 µM, RLM 0.5 mg/ml, NADPH, up to 60 min): 55.5 ± 4.77%
Stability in control reaction in the absence of cofactor ([2]; RLM without NADPH): stable
Conformational change of hLigI (CD) (hLigI): promoted conformational changes in protein
% Inhibition of cell viability at 10 µM, PLC/PRF/5 (Liver) (PLC/PRF/5 (Liver)): NA (NA= Not active (% Inhibition <30%))
% Inhibition of cell viability at 10 µM, A549 (Lung) (A549 (Lung)): NA (NA= Not active (% Inhibition <30%))
% Inhibition of cell viability at 10 µM, HEK-293 (Non-cancerous cell) [3]: 37.83%
% Inhibition of cell viability at 10 µM, A172 (Brain) (A172 (Brain)): 43.71%
% Inhibition of cell viability at 10 µM, 4T1 (Mouse Breast Cancer) ([4]; 10 µM): 53.18%
IC50 ([4]; Mus musculus, MTT, 48 h): 11.6 ± 1.7 µM
% Inhibition of cell viability at 10 µM, SK-OV-3 (Ovary) (SK-OV-3 (Ovary)): NA (NA= Not active (% Inhibition <30%))
% Inhibition of cell viability at 10 µM, PANC-1 (Pancreas) (PANC-1 (Pancreas)): 50.32%
% Inhibition of cell viability at 10 µM, DLD1 (Colon) (DLD1 (Colon)): 42.64%
Cells in G0/G1 phase (MDA-MB-231 cells; [6]): 75.12 ± 2.23%
Cells in G2/M phase (MDA-MB-231 cells; [6]): 8.71 ± 1.57%
Cells in S-phase (MDA-MB-231 cells; [6]): 16.18 ± 0.65%
Cells in G0/G1 phase (MDA-MB-231 cells; 24 h): 57.61 ± 0.1%
Cells in G2/M phase (MDA-MB-231 cells; 24 h): 21.48 ± 2.50%
Cells in S phase (MDA-MB-231 cells; 24 h): 20.91 ± 2.61%
Cells in G0/G1 phase (MDA-MB-231 cells; 48 h): 33.78 ± 4.77%
Cells in G2/M phase (MDA-MB-231 cells; 48 h): 32.53 ± 0.58%
Cells in S phase (MDA-MB-231 cells; 48 h): 33.7 ± 4.2%
Average body weight [5]: no significant change in the average body weight
Breast cancer metastasis to the lungs (4T1 nodules) [5]: marked decrease in breast cancer metastasis to the lungs
Breast tumor growth in-vivo [5]: inhibited breast tumor growth in-vivo in a dose dependent manner; also recorded: arrested tumor progression but could not induce tumor regression
